This experiment deals with T1, human LPA1 (Homo sapiens, UniProt Q92633).
T1 construct: expressed in transfected cells; host or cells: Chinese hamster ovary (CHO) cells
The experiment can be described thus: LPA1 functional antagonist assay (LPA-induced calcium flux in CHO cells overexpressing human LPA1). To be noted: inhibition of calcium flux induced by 10 nM LPA, CHO cells overexpressing human LPA1; read-out: hLPA1 IC50. The format is cell-based. The procedure:
The effectiveness of compounds of the present invention as LPA1 inhibitors can be determined in an LPA1 functional antagonist assay as follows:
Chinese hamster ovary cells overexpressing human LPA1 were plated overnight (15,000 cells/well) in poly-D-lysine coated 384-well microplates (Greiner bio-one, Cat #781946) in DMEM/F12 medium (Gibco, Cat #11039). Following overnight culture, cells were loaded with calcium indicator dye (AAT Bioquest Inc, Cat #34601) for 30 minutes at 37° C. The cells were then equilibrated to room temperature for 30 minutes before the assay. Test compounds solubilized in DMSO were transferred to 384 well non-binding surface plates (Corning, Cat #3575) using the Labcyte Echo acoustic dispense and diluted with assay buffer [IX HBSS with calcium/magnesium (Gibco Cat #14025-092), 20 mM HEPES (Gibco Cat #15630-080) and 0.1% fatty acid free BSA (Sigma Cat #A9205)] to a final concentration of 0.5% DMSO. Diluted compounds were added to the cells by FDSS6000 (Hamamatsu) at final concentrations ranging from 0.08 nM to 5 μM. and were then incubated for 20 min at room temperature at which time LPA (Avanti Polar Lipids Cat #857130C) was added at final concentrations of 10 nM to stimulate the cells. The compound IC50 value was defined as the concentration of test compound which inhibited 50% of the calcium flux induced by LPA alone. IC50 values were determined by fitting data to a 4-parameter logistic equation (GraphPad Prism, San Diego Calif.).
In general terms: Calcium assays in cells follow changes in intracellular calcium, usually with a dye or a luminescent sensor.

As usually defined, the IC50 is the concentration that gives 50% inhibition.

T1 sequence (Q92633 whole entry): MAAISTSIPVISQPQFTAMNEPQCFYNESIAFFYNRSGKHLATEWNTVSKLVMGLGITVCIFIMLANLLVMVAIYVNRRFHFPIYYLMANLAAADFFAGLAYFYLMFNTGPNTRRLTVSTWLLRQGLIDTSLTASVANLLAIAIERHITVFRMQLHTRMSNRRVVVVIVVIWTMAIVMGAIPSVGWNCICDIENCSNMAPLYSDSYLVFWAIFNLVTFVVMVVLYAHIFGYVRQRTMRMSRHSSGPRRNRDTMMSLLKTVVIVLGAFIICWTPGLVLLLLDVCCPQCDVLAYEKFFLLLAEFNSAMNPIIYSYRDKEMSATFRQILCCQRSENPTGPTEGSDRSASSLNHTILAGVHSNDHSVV

Regarding `CCC(OC)c1nc(NCc2c(-c3ccc(O[C@H]4CCC[C@H](C(=O)O)C4)c(C)n3)nnn2C)no1` (mixture of isomers) [Example 217, (1S,3S)-3-((6-(5-(((5-(1-methoxy-propyl)-1,2,4-oxadiazol-3-yl)amino)methyl)-1-methyl-1H-1,2,3-triazol-4-yl)-2-methylpyridin-3-yl)oxy) cyclo-hexane-1-carboxylic acid], the IC50 turned out to be 0.084 µM.

Take `CCCOC(C)c1nc(NCc2c(-c3ccc(O[C@H]4CCC[C@H](C(=O)O)C4)c(C)n3)nnn2C)no1` (mixture of isomers) [Example 218, (1S,3S)-3-((2-methyl-6-(1-methyl-5-(((5-(1-propoxyethyl)-1,2,4-oxadiazol-3-yl)amino)methyl)-1H-1,2,3-triazol-4-yl)pyridin-3-yl)oxy)cyclohexane-1-carboxylic acid]: the IC50 was found to be 0.035 µM.

Regarding `Cc1nc(-c2nnn(C)c2CNc2noc(C3CCCO3)n2)ccc1O[C@H]1CCC[C@H](C(=O)O)C1` (mixture of isomers) [Example 221, (1S,3S)-3-((2-methyl-6-(1-methyl-5-(((5-(tetrahydrofuran-2-yl)-1,2,4-oxadiazol-3-yl)amino)methyl)-1H-1,2,3-triazol-4-yl)pyridin-3-yl)oxy) cyclohexane-1-carboxylic acid], the IC50 was found to be 0.221 µM.

For `CCOC(C)c1nc(NCc2c(-c3ccc(O[C@H]4CCC[C@H](C(=O)O)C4)c(C)n3)nnn2C)no1` (mixture of isomers) [Example 222, (1S,3S)-3-((6-(5-(((5-(1-ethoxyethyl)-1,2,4-oxadiazol-3-yl)amino)methyl)-1-methyl-1H-1,2,3-triazol-4-yl)-2-methylpyridin-3-yl)oxy)cyclohexane-1-carboxylic acid], the IC50 came out at 0.092 µM.

For `COC(C)c1nc(NCc2c(-c3ccc(O[C@H]4CCC[C@H](C(=O)O)C4)c(C)n3)nnn2C)no1` (mixture of isomers) [Example 223, (1S,3S)-3-((6-(5-(((5-(1-methoxy-ethyl)-1,2,4-oxadiazol-3-yl)amino)methyl)-1-methyl-1H-1,2,3-triazol-4-yl)-2-methylpyridin-3-yl)oxy)cyclo-hexane-1-carboxylic acid], the IC50 worked out at 0.466 µM.

For the compound `Cc1nc(-c2nnn(C)c2CNc2noc(C(C)OC3CC3)n2)ccc1O[C@H]1CCC[C@H](C(=O)O)C1` (mixture of isomers) [Example 226, (1S,3S)-3-((6-(5-(((5-(1-cyclopro-poxyethyl)-1,2,4-oxadiazol-3-yl)amino)methyl)-1-methyl-1H-1,2,3-triazol-4-yl)-2-methylpyridin-3-yl)oxy)cyclohexane-1-carboxylic acid], the IC50 was determined as 0.123 µM.

Regarding `Cc1nc(-c2nnn(C)c2Cc2noc(C(C)C3CC3)n2)ccc1O[C@H]1CCC[C@H](C(=O)O)C1` (mixture of isomers) [Example 239, (1S,3S)-3-((6-(5-((5-(1-cyclopropyl-ethyl)-1,2,4-oxadiazol-3-yl)methyl)-1-methyl-1H-1,2,3-triazol-4-yl)-2-methylpyridin-3-yl)oxy)cyclohexane-1-carboxylic acid], the concentration for half-maximal inhibition (IC50) is 0.028 µM.

As to `CCC(C)Cc1nc(NCc2c(-c3ccc(O[C@H]4CCC[C@H](C(=O)O)C4)cn3)nnn2C)no1` (mixture of isomers) [Example 290, (1S,3S)-3-((6-(1-methyl-5-(((5-(2-methylbutyl)-1,2,4-oxadiazol-3-yl)amino)methyl)-1H-1,2,3-triazol-4-yl)pyridin-3-yl)oxy)cyclohexane-1-carboxylic acid, racemate], the IC50 was determined as 0.0373 µM.

On to `CCCC(C)c1nc(NCc2c(-c3ccc(O[C@H]4CCC[C@H](C(=O)O)C4)cn3)nnn2C)no1` (mixture of isomers) [Example 291, (1S,3S)-3-((6-(1-methyl-5-(((5-(pentan-2-yl)-1,2,4-oxadiazol-3-yl)amino)methyl)-1H-1,2,3-triazol-4-yl)pyridin-3-yl)oxy)cyclohexane-1-carboxylic acid, racemate], for which the IC50 is 0.0594 µM.

`CC[C@@H](OC)c1nc(NCc2c(-c3ccc(O[C@H]4CCC[C@H](C(=O)O)C4)c(C)n3)nnn2C)no1` (single isomer, unassigned) [Example 215]: the IC50 was determined as 0.154 µM.

For `CC[C@@H](OC)c1nc(NCc2c(-c3ccc(O[C@H]4CCC[C@H](C(=O)O)C4)c(C)n3)nnn2C)no1` (single isomer, unassigned) [Example 216], the IC50 was 0.121 µM.

Consider `Cc1nc(-c2nnn(C)c2CNc2nsc(C3CC3)n2)ccc1O[C@H]1CCC[C@H](C(=O)O)C1` [Example 1, (1 S,3 S)-3-((6-(5-(((5-Cyclopropyl-1,2,4-thiadiazol-3-yl)amino)methyl)-1-methyl-1H-1,2,3-triazol-4-yl)-2-methylpyridin-3-yl)oxy)cyclohexane-1-carboxylic acid], for which the IC50 worked out at 1.18 µM.

As to `CCCc1nnc(NCc2c(-c3ccc(O[C@H]4CCC[C@H](C(=O)O)C4)c(C)n3)nnn2C)s1` [Example 2, (1 S,3S)-3-((2-Methyl-6-(1-methyl-5-(((5-propyl-1,3,4-thiadiazol-2-yl)amino)methyl)-1H-1,2,3-triazol-4-yl)pyridin-3-yl)oxy)cyclohexanecarboxylic acid], the IC50 turned out to be 0.185 µM.

Take `Cc1nc(-c2nnn(C)c2CNc2nc(C(C)(C)C)ns2)ccc1O[C@H]1CCC[C@H](C(=O)O)C1` [Example 3, (1 S,3 S)-3-((6-(5-(((3-(tert-Butyl)-1,2,4-thiadiazol-5-yl)amino)methyl)-1-methyl-1H-1,2,3-triazol-4-yl)-2-methylpyridin-3-yl)oxy)cyclohexanecarboxylic acid]: the IC50 came to 0.236 µM.

Turning to `COc1nc(NCc2c(-c3ccc(O[C@H]4CCC[C@H](C(=O)O)C4)c(C)n3)nnn2C)ns1` [Example 4], the IC50 came to 1.12 µM.

Take `CCOc1nc(NCc2c(-c3ccc(O[C@H]4CCC[C@H](C(=O)O)C4)c(C)n3)nnn2C)ns1` [Example 5]: the IC50 is 0.028 µM.

For `Cc1nc(-c2nnn(C)c2CNc2nsc(-c3ccccc3)n2)ccc1O[C@H]1CCC[C@H](C(=O)O)C1` [Example 6], the IC50 was 0.018 µM.

For the compound `Cc1nc(-c2nnn(C)c2CNc2nnc(C3CC3)s2)ccc1O[C@H]1CCC[C@H](C(=O)O)C1` [Example 7], the IC50 was 2.24 µM.

Consider `Cc1nc(-c2nnn(C)c2CNc2nnc(CC(C)C)s2)ccc1O[C@H]1CCC[C@H](C(=O)O)C1` [Example 8], for which the half-maximal inhibitory concentration (IC50) worked out at 0.455 µM.

As to `Cc1nc(-c2nnn(C)c2CNc2nc(-c3ccccc3)ns2)ccc1O[C@H]1CCC[C@H](C(=O)O)C1` [Example 9], the IC50 turned out to be 0.038 µM.

As for `Cc1nc(-c2nnn(C)c2CNc2nc(C(C)C)ns2)ccc1O[C@H]1CCC[C@H](C(=O)O)C1` [Example 10], the IC50 is 0.071 µM.

For `CCCn1cc(NCc2c(-c3ccc(O[C@H]4CCC[C@H](C(=O)O)C4)c(C)n3)nnn2C)nn1` [Example 11], the IC50 stood at 0.705 µM.

For `Cc1nc(-c2nnn(C)c2CNc2nc(C(C)C)cs2)ccc1O[C@H]1CCC[C@H](C(=O)O)C1` [Example 12], the IC50 amounted to 0.745 µM.

Regarding `Cc1nc(-c2nnn(C)c2CNc2nc(C3CCC3)cs2)ccc1O[C@H]1CCC[C@H](C(=O)O)C1` [Example 13], the IC50 was 0.013 µM.

Take `Cc1nc(-c2nnn(C)c2CNc2nc(-c3ccccc3)cs2)ccc1O[C@H]1CCC[C@H](C(=O)O)C1` [Example 14]: the IC50 amounted to 0.13 µM.

`Cc1nc(-c2nnn(C)c2CNc2ncc(C(C)C)s2)ccc1O[C@H]1CCC[C@H](C(=O)O)C1` [Example 15]: the IC50 was found to be 0.055 µM.

Take `Cc1nc(-c2nnn(C)c2CNc2ncc(-c3ccccc3)s2)ccc1O[C@H]1CCC[C@H](C(=O)O)C1` [Example 16]: the IC50 amounted to 0.067 µM.

Consider `Cc1nc(-c2nnn(C)c2CNc2nc3c(s2)CCCC3)ccc1O[C@H]1CCC[C@H](C(=O)O)C1` [Example 17], for which the IC50 stood at 1.2 µM.

For the compound `Cc1nc(-c2nnn(C)c2CNc2nc(-c3ccccc3)c(C)s2)ccc1O[C@H]1CCC[C@H](C(=O)O)C1` [Example 18], the IC50 was 0.015 µM.

On to `CCc1cnc(NCc2c(-c3ccc(O[C@H]4CCC[C@H](C(=O)O)C4)c(C)n3)nnn2C)o1` [Example 19], for which the IC50 was found to be 0.106 µM.

For the compound `Cc1nc(-c2nnn(C)c2CNc2ncc(-c3ccccn3)o2)ccc1O[C@H]1CCC[C@H](C(=O)O)C1` [Example 20], the IC50 worked out at 0.099 µM.

For `Cc1nc(-c2nnn(C)c2CNc2nc(-c3ccccc3)c(F)s2)ccc1O[C@H]1CCC[C@H](C(=O)O)C1` [Example 21, (1 S,3 S)-3-((6-(5-(((5-fluoro-4-phenylthiazol-2-yl)amino)methyl)-1-methyl-1H-1,2,3-triazol-4-yl)-2-methylpyridin-3-yl)oxy)cyclohexane-1-carboxylic acid], the IC50 stood at 0.018 µM.

With `Cc1nc(-c2nnn(C)c2CNc2cnn(CC(C)C)n2)ccc1O[C@H]1CCC[C@H](C(=O)O)C1` [Example 22, (1 S,3 S)-3-((6-(5-(((2-isobutyl-2H-1,2,3-triazol-4-yl)amino)methyl)-1-methyl-1H-1,2,3-triazol-4-yl)-2-methylpyridin-3-yl)oxy)cyclohexane-1-carboxylic acid], the IC50 amounted to 0.042 µM.

The values are drawn from patent US11319315B2, “Cyclohexyl acid triazole azoles as LPA antagonists” (BRISTOL-MYERS SQUIBB COMPANY, priority 2017, dated 2022).
